Tests used:
[1] = system: human peripheral blood T cells; experiment: IL-2 production assay in T cells (ELISA); format: cell-based
Experimental: IL-2 production. T cells were cultured and activated by 10 or 50 μM Sp-8-Br-cAMPs (a cAMP agonist) for 15 minutes before the T cells were activated by anti-CD3/anti-CD28 beads (Dynal) for 20 hours. Cell free supernatants were harvested and stored at −80° C. until analsysed. The IL-2 levels were determined by Elisa (R & D Systems, Europe Ltd., UK):
IL-2 production Assay. Primary T cells were stimulated or not with anti-CD3/anti-CD28 coated beads (Dynal, cat. no. 111.31) for 20 hours, thereafter supernatants were harvested and the concentration of IL-2 was assessed by ELISA (R&D Systems, cat. no D2050). When used, 8-CPT-cAMP was added for 15 minutes before CD3/CD28 treatment.
To examine the effect of MEME3 on cytokine production, IL-2 levels in medium from human peripheral blood T cells treated with MEME3-Arg11 were measured by ELISA. First, cells were treated with MEME3-Arg11 for 12 hours, thereafter the PKA inhibitory pathway was activated by 10 or 50 μM Sp-8-Br-cAMPs (a cAMP agonist) for 15 minutes before the T cells were activated by CD3/CD28 stimulation (FIG. 21).

Lck-PY505 = Lck-PY505 level in lipid rafts of forskolin-stimulated T cells; format: cell-based, human; details: 25 μM, 12 hours, n=3
Experimental: Antibodies. RI or RII were immunoprecipitated with polyclonal antibodies against human RI or human RII at a 3 μg/ml dilution (Santa Cruz Biotechnology). MEME3 or scrambled peptide was immunoprecipitated with 1.5 μl of anti-GFP antiserum (Invitrogen). Monoclonal (Transduction laboratories) or polyclonal antibodies (Santa Cruz Biotechnology) against human RIα and RIIα were used at a 1 μg ml^−1 or 0.5 μg ml^−1 ilution for Western blotting. Polyclonal antibodies against human Cα (Santa Cruz Biotechnology) and LAT (Upstate Biotechnology) were used at a 0.4 μg ml^−1 and a 1 μg ml^−1 dilution for Western blotting, respectively. Polyclonal antibodies against LckPY505 (Cell Signaling) were used at a 1:1000 dilution and polyclonal antibody raised towards PS364 in Csk were used as previously described (Yaqub et al., Biochem. J., 372: p 271-8, 2003). Polyclonal antibodies against StAR (Affinity BioReagents) were used at 1 μg ml^−1. […]
Peripheral blood T cells were incubated in the absence (FIG. 20, A) or presence of 25 μM MEME3-Arg11 (B) or 25 μM SM3-Arg11 (C) for 12 hours and stimulated with forskolin to activate the PKA-Csk inhibitory pathway. […] Next, fractions were analysed by 10% PAGE, blotting onto a PVDF membrane and immunoblotting using phosphospecific antibodies to Lck-PY505 (FIG. 20, panels A-C).

[2] = biological target: T1, PKA type I in lipid rafts of human peripheral blood T cells (Homo sapiens, UniProt P10644); experiment: PKA type I content of lipid rafts from human T cells (immunoblot densitometry); format: cell-based; details: n=4; for reduction of PKA type I in lipid rafts: 12 hours
T1 construct: endogenous in cells; host or cells: human peripheral blood T cells
Experimental: Lipid Raft Purification. Isolation of lipid rafts or glycolipid-enriched membrane microdomains was performed as described in detail elsewhere (Zhang, W. et al., 1998, Immunity 9:239-246). In brief, cells were homogenized in 1 ml ice-cold lysis buffer (50 mM Hepes, pH 7.4, 100 mM NaCl, 5 mM EDTA, […], 10 mM sodium pyrophosphate, 1 mM Na3VO4, 50 mM NaF, 1 mM PMSF, and protease inhibitors) by 10 pestle strokes in a Dounce homogenizer, loaded at the bottom of a 40-5% sucrose gradient and centrifuged at 200,000 g for 5 or 20 h. 80 μl or 0.4-ml fractions were collected from the top. The fractions were analysed by immunoblot analysis. LAT was used as a marker for lipid raft fractions.
Isolation of T cells. Human peripheral blood T cells were purified by negative selection (95-98% pure) as described (Aandahl E M et al., 1998, FASEB J. 12:855-62). Lipid Raft Purification. Isolation of lipid rafts or glycosphingolipid-enriched membrane microdomains from T cells was performed by small scale ultracentrifugation. In brief, 20 million cells were homogenized in 250 μl ice-cold lysis buffer (50 mM Hepes, pH 7.4, 100 mM NaCl, 5 mM EDTA, […], 10 mM sodium pyrophosphate, 1 mM Na3VO4, 50 mM NaF, 1 mM PMSF, and protease inhibitors) by 10 pestle strokes in a Dounce homogenizer, loaded at the bottom of a 40 to 50 sucrose gradient and centrifuged at 200,000 g for 5 h. 80 μl fractions were collected from the top. The fractions were analysed by immunoblot analysis. LAT was used as a marker for lipid raft fractions. […]
Lipid rafts were purified from isolated human peripheral blood T cells treated with MEME3-Arg11 or SM3-Arg11 for 12 hours, followed by 10% PAGE and blotting onto a PVDF membrane and immunoblotting (FIG. 18, left panel). The PKA content was measured by densitometry of immunoblots (n=4). […] The very weak signal observed after immunoblotting using antibodies against RIIα (data not shown) was measured by densitometry of the autoradiogram. […]

LEQYANQLADQIIKEATERRRRRRRRRrr [MEME3-Arg11]
increase in IL-2 production ([1]; 10 μM, relative to untreated T cells): 2.5 fold
IL-2 levels ([1]; 12 hours peptide, Sp-8-Br-cAMPs, CD3/CD28 stimulation): increased in samples treated with MEME3-Arg11 in a concentration-dependent manner
reduction of LckPY505 levels compared to SM3-Arg11 treated cells (Lck-PY505): 60%
reduction of PKA type I in lipid rafts ([2]; 10 μM): 80%
reduction of RI and C concentration in lipid rafts compared to SM3 ([2]; 10 μM, primary human T cells): 80%
reduction of PKA type I in lipid rafts ([2]; 25 μM): 90%

Reference: US20080248008A1, “Inhibitors of Protein Kinase a Anchoring” (priority 2004, published 2008)
